# Data reported in patent US20260034091A1, “Compositions and Methods for Treating Metabolic Disorders” (The Regents of the University of California, priority 2022, published 2026).
# Assays:
# PPAR signaling pathway = assay: Transcriptional analysis of liver samples from 60% HFD mouse model of diet induced obesity; type: in vivo, C57BL/6J male mice
# Description: Six-week old C57BL/6J male mice were fed with a 60 kcal % fat diet (Research Diets A12492i) for seven weeks before introduction of either control or 125 mg/kg, BID, initial loading dose of TOFA daily via controlled oral gavage for one week (FIG. 2A). Mice were then treated with either vehicle (control) or 62.5 mg/kg, BID, maintenance dose of TOFA daily via oral gavage for three additional weeks. Upon study termination at 11 weeks, liver samples were collected. Total RNA was extracted from liver tissues (Qiagen RNeasy kit 74106), cDNA libraries were constructed (Roche KAPA HyperPrep kit), sequenced on the NovaSeq6000 platform (Novogene), and a downstream analysis pipeline was performed. Differentially expressed genes (DEGs) were defined by at least one log2-fold change (2-fold in linear scale) with an FDR cutoff of 0.05. For validation, total RNA was used to prepare CDNA (BioRAD iScript™ Reverse Transcription) according to manufacturer's protocol and qPCR was performed with fast SYBR Green Mix (ThermoFisher A25742) on the QuantStudio6 System (Applied Biosystems).
# [1] = tested on: CDAHFD induced late stage NAFLD/NASH in mice; assay: In-depth investigation of rescue effect of TOFA in CDAHFD induced late stage NAFLD/NASH; type: in vivo, C57BL/6J male mice; settings: four weeks
# Description: Six-week-old C57BL/6J male mice were fed with a L-amino acid diet with 60 kcal % fat with 0.1% methionine and no added choline (CDAHFD; Research Diets A06071302i) for eight weeks. Ten subjects were randomly assigned to either a vehicle (control) treatment or a 125 mg/kg. BID, of TOFA treatment delivered by oral gavage for an additional four weeks. Mice weights were monitored during the entire treatment time course. Upon study termination at 12 weeks, serum and liver samples were collected. Serum liver damage biomarkers, ALT and AST, were measured by commercially available kits (abcam 105134 and abcam 105135, respectively). Hepatic and serum triglyceride levels were measured from a commercially available kit (abcam65336). Total RNA was extracted from liver tissues (Qiagen RNeasy kit 74106), and cDNA was prepared (BioRAD iScript™ Reverse Transcription) according to manufacturer's protocols. Quantitative PCR (qPCR) was performed with fast SYBR Green Mix (ThermoFisher A25742) on the QuantStudio6 System (Applied Biosciences).
# [2] = tested on: CDAHFD mouse model of diet-induced NAFLD/NASH; assay: TOFA and Semaglutide single agent and combination in CDAHFD mouse model of NAFLD/NASH; type: in vivo, C57BL/6J male mice
# Description: Six-week-old C57BL/6J male mice were fed with a L-amino acid diet with 60 kcal % fat with 0.1% methionine and no added choline (CDAHFD; Research Diets A06071302i) for eight weeks. Mice were randomly assigned to treatment groups of either a vehicle (control), 250 mg/kg of TOFA, 5 nmol/kg of Semaglutide (Novo Nordisk), or a combined dose of 250 mg/kg TOFA plus 5 nmol/kg Semaglutide. TOFA was administered by oral gavage. Semaglutide dosing was up-titrated at beginning of treatment regimen and was delivered via subcutaneous injection at the back shoulder/neck flank. All treatments were delivered QD for an additional four weeks. Mice weights and food intake were monitored during the treatment time course. Upon study termination at 12 weeks, liver and serum samples were collected. Serum liver damage biomarkers, ALT and AST, were measured by commercially available kits (abcam105134 and Cayman 701640, respectively). Hepatic and serum triglyceride levels were measured using a commercially available kit (abcam65336). Total RNA was extracted from liver tissues (Qiagen RNeasy kit 74106), and cDNA was prepared (BioRAD iScript™ Reverse Transcription) according to manufacturer's protocols. Quantitative PCR (qPCR) was performed with fast SYBR Green Mix (ThermoFisher A25742) on the QuantStudio6 System (Applied Biosciences). Additional liver samples were fixed in 4% paraformaldehyde and embedded in paraffin blocks for sectioning and subsequently stained with hematoxylin and eosin (H&E) or Sirius Red with a fast green dye background.
# [3] = tested on: 60% HFD diet-induced obesity with PPARA KO; assay: TOFA in genetic PPARA knockout mice, 60% HFD diet-induced obesity (DIO) model; type: in vivo, PPARA knockout (PPARA KO) male mice
# Description: (§1) Six-week-old genetic PPARA knockout (PPARA KO) male mice were fed with a L-amino acid diet with 60 kcal % fat with 0.1% methionine and no added choline (CDAHFD; Research Diets A06071302i) for three weeks or fed with a 60 kcal % fat diet (DIO; Research Diets A12492i) for eight weeks before introduction of either vehicle (control) or 125 mg/kg of TOFA, BID, via oral gavage for an additional two weeks (FIG. 11A and FIG. 11J, respectively). C57BL/6J (WT) mice were fed with the CDAHFD and underwent similar experimental conditions and time course. Mice weights and adverse events were monitored during the treatment time course. Upon study termination, serum and liver samples were collected. Serum liver damage biomarkers, ALT and AST, were measured by commercially available kits (abcam105134 and abcam 105135, respectively). Hepatic and serum triglyceride levels were measured from a commercially available kit (abcam65336). Total RNA was extracted from liver tissues (Qiagen RNeasy kit 74106), and cDNA was prepared (BioRAD iScript™M Reverse Transcription) according to manufacturer's protocols. Quantitative PCR (qPCR) was performed with fast SYBR Green Mix (ThermoFisher A25742) on the QuantStudio6 System (Applied Biosciences). Protein expression levels of liver samples were measured by western blot using antibodies against ACC1/2 (CST3662, 1:1000), VLDLR (AF2258, 1:2000), CPT1A (CST12252, 1:1000), PPARA (abcam126285, 1:1000) and beta-tubulin (CST2146, 1:1000). Membranes were developed using a HRP secondary antibody (1:5000) and visualized using an enhanced chemiluminescent HRP substrate (Thermo34577). Additional liver samples were fixed in 4% paraformaldehyde and embedded in paraffin blocks for sectioning and subsequently stained with hematoxylin and eosin (H&E). Frozen fresh liver tissue was embedded in OCT, sectioned, and subsequently stained with Oil Red O.
# [4] = tested on: CDAHFD diet-induced NAFLD/NASH in wild-type mice; assay: TOFA in wild-type mice on CDAHFD (comparison to PPARA KO); type: in vivo, C57BL/6J (WT) mice
# Description: as §1, with “Total RNA was extracted from liver tissues (Qiagen RNeasy kit 74106), and cDNA was prepared (BioRAD iScript™M Reverse Transcription) according to manufacturer's protocols.” left out, “Membranes were developed using a HRP secondary antibody (1:5000) and visualized using an enhanced chemiluminescent HRP substrate (Thermo34577). Additional liver samples were fixed in 4% paraformaldehyde and embedded in paraffin blocks for sectioning and subsequently stained with hematoxylin and eosin (H&E). Frozen fresh liver tissue was embedded in OCT, sectioned, and subsequently stained with Oil Red O.” left out
# [5] = 125 mg/kg BID 1 week then 62.5 mg/kg BID 3 weeks, oral gavage
# [6] = four weeks, TOFA 250 mg/kg oral QD, Semaglutide 5 nmol/kg s.c. QD
compound,measurement,setting,value
"CCCCCCCCCCCCCCOc1ccc(C(=O)O)o1 [TOFA, 5-(Tetradecyloxy)-2-furoic acid]",genes in the PPAR signaling pathway (BioPlanet 2019 database),PPAR signaling pathway; [5],upregulated various genes under PPAR transcriptional control
same,highest upregulated genes (RNAseq of liver),PPAR signaling pathway; [5],canonical PPAR-alpha target genes
same,transcriptional regulatory relationship analysis of upregulated genes (TRRUST Transcription Factors 2019),PPAR signaling pathway; [5],PPARA is one of the major acting factors in transcriptional regulation
same,"downstream PPAR target genes by RT-qPCR (fatty acid beta-oxidation, acyl-CoA processing, lipoprotein uptake and metabolism)",PPAR signaling pathway; liver mRNA relative to r18s mRNA,upregulated
same,hepatic hydrogen peroxide levels,[1]; 125 mg/kg BID oral gavage,decrease
same,liver triglyceride levels,[1]; 125 mg/kg BID oral gavage,significant decrease
same,serum ALT,[1]; 125 mg/kg BID oral gavage,trending decreases
same,serum AST,[1]; 125 mg/kg BID oral gavage,trending decreases
same,body weight,"[1]; 125 mg/kg BID oral gavage, vs vehicle",significant decrease
same,expression of genes involved in collagen biosynthesis by qPCR,"[1]; liver mRNA, 125 mg/kg BID",decreased
same,"expression of inflammation genes (Il1b, Tnfa) by RT-qPCR","[1]; liver mRNA, 125 mg/kg BID",decrease in expression
same,"genes with PPAR regulatory elements (beta-oxidation, lipogenesis) by RT-qPCR","[1]; liver mRNA, 125 mg/kg BID",upregulated
same,food intake,[2]; four weeks treatment,not due to changes in food intake
same,body weight at the end of the treatment time course,[2]; [6],smaller degree of weight loss compared to Semaglutide treated mice
same,inflammation genes (RT-qPCR of liver samples),[2]; [6],specific response of TOFA in addressing inflammation
same,mRNA levels of genes involved in collagen biosynthesis (RT-qPCR),[2]; [6],strong repressive effectives
same,serum ALT levels,[2]; [6],moderate reductions
same,serum AST levels,[2]; [6],only group to have demonstrated reduction
same,fibrotic content (Sirius red staining),"[2]; four weeks, liver sections",aforementioned histological trends are noted
same,steatosis (H&E liver sections),"[2]; four weeks, relative to control",greater reduction in steatosis
same,liver triglyceride levels,"[2]; four weeks, relative to vehicle control","stronger, significant reduction"
same,body weight upon treatment start,[3]; 125 mg/kg BID oral gavage,decrease in weight
same,Vldlr mRNA (RT-qPCR),"[3]; 125 mg/kg BID, two weeks",blunted response
same,hepatic steatosis (H&E-stained liver sections),"[3]; 125 mg/kg BID, two weeks",minimal changes in hepatic steatosis
same,serum triglyceride (serum lipid levels),"[3]; 125 mg/kg BID, two weeks",elevated serum lipid levels
same,adverse events,"[3]; 125 mg/kg BID, two-week treatment period",Adverse events were observed
same,Cpt1a mRNA (RT-qPCR),"[4]; 125 mg/kg BID, two weeks",induction of Cpt1a mRNA
same,"protein expression levels of CPT1A, VLDLR, and ACC1 (western blot)",[4]; relative to vehicle control,increased
